From PubChem BioAssay AID179 (DTP/NCI, 2004)
pEC50, pIC50: −log10 of the molar value. The source made the active and inactive calls.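 The calls were made as follows: active = compounds giving half or more protection of infected cells from virus-caused growth loss, again on retest; inactive = the rest.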

Test system: CEM cells HIV-1 protection, formazan growth assay
Experiment: NCI AIDS Antiviral Assay
Conditions: for pIC50: measured here: growth of uninfected CEM cells
How it was run: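 Soluble formazan readout of cell growth; CEM cells ± HIV-1; 5 drug concs. ≥50% protection → retest; ≥50% again = moderately active; reproducible 100% = confirmed active.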

## Cc1ccc(S(=O)(=O)/C(C#N)=C/NS(=S)c2ccncc2)cc1 (stereo not given)
  outcome: inactive

## Cc1cc2c(=O)cc(-c3ccncc3)oc2c(C(N)=O)c1C
  pEC50: < 3.82
  pIC50: 4.15

## CC(C)OP(=O)(OC(C)C)C(C(C)C)N(C)C(N)=NC#N (stereo not given)
  pEC50: < 3.70
  pIC50: < 3.70

## COc1ccc(N2C(=O)C3c4[nH]c5ccc(C)cc5c4C4CCC(C)CC4C3C2=O)cc1 (stereo not given)
  pEC50: < 4.00
  pIC50: < 4.00

## Cc1cn(C(=O)NC23CC4CC(CC(C4)C2)C3)c(=O)[nH]c1=O
  pEC50: < 4.00
  pIC50: 4.29

## CCC(C)C(CC)C(=O)NC(N)=O (stereo not given)
  pEC50: < 3.70
  pIC50: < 3.70

## Cn1c(=O)c2nc3c(=O)n(C)c(=O)n(CC(N)=O)c3nc2n(C)c1=O
  pEC50: < 3.70
  pIC50: < 3.70

## Cc1ccc(Cc2c(=O)[nH]nc3ccccc23)cc1
  pEC50: < 4.40
  pIC50: < 4.40

## COc1cccc(C2(C#N)CCN(C)CC2)c1
  pEC50: < 2.97
  pIC50: 3.27

## CC1=NC=C(O)c2ccccc2O1
  pEC50: < 4.39
  pIC50: < 4.39

## OCC1OC(n2nc(-c3ccccc3)nc2-c2cnccn2)C(O)C1O (stereo not given)
  pEC50: < 3.70
  pIC50: < 3.70

## CCOC(=O)c1c2ccccc2n2c(=O)n(-c3ccc(OC)cc3)nnc12
  pEC50: < 4.24
  pIC50: 4.49

## COc1ccccc1C(O)(c1ccccc1)C(O)(c1ccccc1)c1ccccc1OC (stereo not given)
  pEC50: < 4.80
  pIC50: < 4.80

## O=C1C(=Cc2cccs2)C(=O)N(CCc2ccccc2)S(=O)(=O)N1CCc1ccccc1
  pEC50: < 5.09
  pIC50: < 5.09

## c1ccc(-c2cc(-c3ccncc3)cc(-c3ccncc3)n2)cc1
  pEC50: < 3.70
  pIC50: < 3.70

## COc1c2ccoc2cc2oc(=O)ccc12
  pEC50: < 4.23
  pIC50: < 4.23

## CN(C)C(=O)NCCN1CCCCCc2ccccc21
  pEC50: < 3.70
  pIC50: 4.31

## [N-]=[N+]=CC(=O)OC1CCc2ccccc21 (stereo not given)
  pEC50: < 3.70
  pIC50: < 3.70

## Cn1c(=O)n2n(c1=O)C(C)(C13CC4CC(CC(C4)C1)C3)C13CC4CC(CC1C4)CC23 (stereo not given)
  pEC50: < 4.00
  pIC50: < 4.00

## Nc1n[n+](CC(=O)c2ccccc2)c2sc(-c3ccccc3)nn12
  pEC50: < 3.70
  pIC50: 4.34

## NC(N)=NS(=O)(=O)c1ccc(NNc2c3ccccc3nc3c(C(=O)Nc4ccc(S(=O)(=O)Nc5ncccn5)cc4)cccc23)cc1
  pEC50: < 4.00
  pIC50: 4.64

## CN(C)CCn1c(=O)nc2c3c(c([N+](=O)[O-])ccc31)Nc1ccc(O)cc1-2
  pEC50: < 5.70
  pIC50: 5.71

## CCOc1ccc(Nc2nc(C)c(C(=O)CC(=O)C(=O)Nc3ccc(C(C)C)cc3C(C)C)s2)cc1
  pEC50: < 3.70
  pIC50: 3.98

## Cc1cn(CCCCOC(=O)NC(CCCN=C(N)N)C(=O)O)c(=O)[nH]c1=O (stereo not given)
  pEC50: < 3.70
  pIC50: < 3.70

## CCC1(c2ccc(OC)c(OC)c2)CCN2C(=O)C(O)CC21 (stereo not given)
  pEC50: < 3.70
  pIC50: < 3.70

## COc1cccc2c1C(=O)c1c(O)c3c(c(O)c1C2=O)C[C@@](O)(C(=O)CO)C[C@@H]3OC1CC(N2CCOCC2)C(O)C(C)O1 (stereo not given in full)
  outcome: inactive

## Nc1ncnc2c1C=C(B(O)O)B(O)N2
  pEC50: < 3.90
  pIC50: 4.13

## O=C(CCc1ccccc1)n1cccc1CO
  pEC50: < 3.70
  pIC50: 4.25

## CCCCN(CCCC)CCCn1cnc2ncccc2c1=O
  outcome: inactive

## N=S(c1ccccc1)c1ccccc1[N+](=O)[O-] (stereo not given)
  pEC50: < 3.80
  pIC50: 5.77

## CC12Cc3ccccc3CC1OCN1CN2COC2Cc3ccccc3CC21C (stereo not given)
  pEC50: < 4.88
  pIC50: < 4.88

## CC(C)COC(=O)c1ccc(N)cc1
  pEC50: < 3.70
  pIC50: < 3.70

## COP(=O)(OC)C(NC(=O)C(F)(F)F)(c1ccccc1)C(F)(F)F (stereo not given)
  pEC50: < 3.70
  pIC50: < 3.70

## c1ccc(SC2CCCO2)cc1 (stereo not given)
  outcome: inactive

## Cc1nc2ccc(Cl)cc2c(-n2ccnc2)c1CCn1ccnc1
  pEC50: < 3.70
  pIC50: 4.05

## Nc1cc2nc(=O)cc3n2c(n1)SC3
  pEC50: < 4.17
  pIC50: < 4.17

## O[C@H]1C=CC[C@H]2C(F)(F)[C@](F)(Cl)[C@@]12Cl
  pEC50: < 3.00
  pIC50: 3.73

## O=c1oc2ccccc2c(O)c1C(c1ccc(Cl)cc1)c1c(O)c2ccccc2oc1=O
  pEC50: < 3.70
  pIC50: 4.58

## CC1=C(C)[C@]2(C)C(C)[C@]13Cn1c(=O)n(-c4ccccc4)c(=O)n1[C@@]32C (stereo not given in full)
  pEC50: < 4.11
  pIC50: 4.29

## CCOC(=O)c1ccc(Nc2nc3ccc(C(F)(F)F)cc3nc2C(=O)OCC)cc1
  outcome: inactive

## N#Cc1cccc(N2C(=O)C3C4C=CC(C3C2=O)C2C(=O)N(c3cccc(C#N)c3)C(=O)C42)c1 (stereo not given)
  outcome: inactive

## CCC(C)C(=O)c1c(O)c(CC2OC2(C)C)c(O)c2c(C(O)CC)cc(=O)oc12 (stereo not given)
  pEC50: < 3.70
  pIC50: 5.25

## COC(=O)C12C3C4C1C1C2C3C41C(=O)N(C(C)C)C(C)C (stereo not given)
  pEC50: < 3.06
  pIC50: < 3.06

## COc1ccc2nc3ccccc3c(NCCCN(CCCl)CCCl)c2c1
  outcome: inactive

## CC(C)N(C(=O)C12C3C4C5(C#N)C3C1(C#N)C5C42C#N)C(C)C (stereo not given)
  pEC50: < 4.49
  pIC50: < 4.49

## COc1cc(OC)cc(C2=NNc3n[nH]c(=S)n3N2)c1
  pEC50: < 3.91
  pIC50: < 3.91

## CN1C(=O)CN2C(Cl)(Cl)C2(c2ccccc2F)c2cc([N+](=O)[O-])ccc21 (stereo not given)
  pEC50: < 3.70
  pIC50: 3.85

## O=C(Nc1ccc(C2=NCCN2)cc1)Nc1cccc(C(=O)Nc2ccc(C3=NCCN3)cc2)c1
  pEC50: 4.89
  pIC50: 4.13

## CCOC(=O)c1nc2ccc(C(F)(F)F)cc2nc1NCc1ccc(OC)cc1
  pEC50: < 3.70
  pIC50: 4.42

## C=C1c2ccccc2CCN1CC(=O)CC1C=CCS1(=O)=O (stereo not given)
  pEC50: < 3.39
  pIC50: < 3.39

## ClC1=C(Cl)C(Cl)(Cl)SS1
  pEC50: < 3.70
  pIC50: 4.48

## c1ccc(-c2cc(-c3cccs3)c(-c3cccs3)o2)cc1
  pEC50: < 3.70
  pIC50: 4.59

## O=[N+]([O-])c1c(C=Nc2ccccc2)oc(-c2ccc3c(c2)OCO3)c1-c1ccc2c(c1)OCO2
  pEC50: < 4.31
  pIC50: < 4.31

## CCOC(=O)/C(C#N)=C/c1ccccc1F
  pEC50: < 3.51
  pIC50: < 3.51

## COc1cc2c(cc1O)[C@H](C)C(c1ccc(OC)c(OC)c1)O2 (stereo not given in full)
  pEC50: < 3.67
  pIC50: 4.98

## CC1CCC(=O)NCCCCC(=O)N1 (stereo not given)
  pEC50: < 4.44
  pIC50: < 4.44

## [N-]=[N+]=NCCCCCCCCCCCC(=O)O
  pEC50: < 3.70
  pIC50: 4.09

## CNP(=O)(Oc1cc(Cl)c(Cl)cc1Cl)N1CCN(c2ccccc2)CC1 (stereo not given)
  pEC50: < 4.23
  pIC50: 4.51

## O=C(O)CCCCCCCCCCCBr
  pEC50: 4.43
  pIC50: 3.79

## O=C1OC([C@H](O)c2cccnc2)c2ccccc21 (stereo not given in full)
  pEC50: < 3.70
  pIC50: < 3.70

## Cc1ccccc1S(=O)(=O)N1CCN(S(=O)(=O)c2ccccc2C)CC1
  pEC50: < 3.70
  pIC50: < 3.70

## CC(=O)OC(C)CC[P+](c1ccccc1)(c1ccccc1)c1ccccc1 (stereo not given)
  pEC50: < 3.70
  pIC50: 4.12

## CCN=C(C#N)NCC
  pEC50: < 3.15
  pIC50: 3.59

## COc1ccc(CCNC(=O)Cc2ccccc2CO)cc1OC
  pEC50: < 3.70
  pIC50: < 3.70

## COc1ccc(C(=O)C[P+](c2ccccc2)(c2ccccc2)c2ccccc2)cc1
  pEC50: < 3.70
  pIC50: 4.47

## NC(=O)c1nnc2cc(F)ccc2c1N
  pEC50: < 3.70
  pIC50: 4.13

## CC1(C)/C(=N\Nc2ccc([N+](=O)[O-])cc2[N+](=O)[O-])C2CCC1C2 (stereo not given)
  pEC50: < 3.70
  pIC50: < 3.70

## CC1C(=O)C(C)C(c2ccccc2)N(N=O)C1c1ccccc1 (stereo not given)
  pEC50: < 4.37
  pIC50: < 4.37

## Cc1c(Cl)ccc2c1NC(=O)C2(O)C1Cc2ccccc2C1=O (stereo not given)
  pEC50: < 4.54
  pIC50: 4.90

## CC(C)Oc1cc2c(c3oc(=O)c4c(c13)CCC4)C(=O)[C@H](C)[C@@H](C)O2
  pEC50: < 3.70
  pIC50: 4.40

## CC12CC3(C)SC(C)(CC(C)(S1)S2)S3
  outcome: inactive

## CC(C)N(C=C(C#N)C#N)C(C)C
  pEC50: < 3.70
  pIC50: < 3.70

## CCOC(=O)/C(=C\c1ccc([N+](=O)[O-])cc1)[Se]c1ccccc1
  pEC50: < 4.16
  pIC50: 4.57

## Cc1nc2[nH]ncn2c(=O)c1CCO
  pEC50: < 3.70
  pIC50: < 3.70

## c1ccc(OP2(Oc3ccccc3)=NP(Oc3ccccc3)(Oc3ccccc3)=NP(Oc3ccccc3)(Oc3ccccc3)=NP(Oc3ccccc3)(Oc3ccccc3)=N2)cc1
  pEC50: < 4.00
  pIC50: < 4.00

## CN(C)c1nc(=Nc2cccc(Cl)c2)ss1
  outcome: inactive

## CCC/C(Cl)=N/OC(=O)Nc1cccc(F)c1
  pEC50: < 4.70
  pIC50: 5.50

## C=C1C(=O)O[C@H]2[C@H]1CC(=O)/C(C)=C/CC[C@@]1(C)O[C@@H]21
  pEC50: < 5.70
  pIC50: 6.10

## COC(=O)C1CC(C(=O)OC)c2nc3cc(C)c(C)cc3nc21 (stereo not given)
  pEC50: < 4.08
  pIC50: < 4.08

## COc1ccc2nc3c([N+](=O)[O-])ccc4c3c(c2c1)N=CN4CCN(C)C
  pEC50: < 4.00
  pIC50: 5.99

## CCOC(=O)/N=N\C(=O)OCC
  pEC50: < 3.70
  pIC50: < 3.70

## O=c1[nH]c(C2CCCCC2)nc2ccc(Cl)cc12
  outcome: inactive

## COc1cc2c(cc1OCCCN1C(=O)c3cccc4cccc(c34)C1=O)N=C[C@@H]1CCCN1C2=O
  pEC50: 5.29
  pIC50: 4.88

## O=C(Nc1ccccc1)N1CCN(C(=O)Nc2ccccc2)C1=S
  pEC50: 3.71
  pIC50: < 3.70

## CN(C)N=Nc1cn[nH]c1C(N)=O
  pEC50: < 3.86
  pIC50: 5.17

## CC1=NN(C(=O)c2ccc(Cl)cc2)C(=O)/C1=C/c1ccc(Cl)cc1
  pEC50: < 4.98
  pIC50: < 4.98

## CC12C(=O)CC(CC1=O)C2(C)C
  pEC50: < 3.70
  pIC50: < 3.70

## OCC1OC2c3ccccc3COC2C1OCc1ccccc1 (stereo not given)
  outcome: inactive

## N=C(N)N=Nc1cc(O)c(NN=C(N)N)cc1O
  pEC50: < 3.70
  pIC50: 3.96

## O=C(CCCC[n+]1ccccc1)Sc1ccccc1C(=O)Nc1ccc(S(=O)(=O)Nc2ccnn2-c2ccccc2)cc1
  pEC50: 5.21
  pIC50: 4.45

## C#CCOCn1cnc2c(=O)[nH]cnc21
  pEC50: < 3.48
  pIC50: < 3.48

## COCn1c(C)c(C)c2c(=O)oc(=O)[nH]c21
  pEC50: < 3.70
  pIC50: < 3.70

## N#CC(=N)c1ncn(-c2ccccc2N)c1N
  pEC50: < 3.70
  pIC50: < 3.70
